US20250302343A1, “AN ELECTRODE ARRAY FOR MEASURING THE PH OF ANIMAL TISSUES, A PROBE […] AN ARRAY, AND AN ASSEMBLY COMPRISING SAID PROBE” (QUANTUM I[…]. Z O.O., priority 2022, published 2025)
“Also recorded” adds a separate entry of the source.

Settings: electrodes comprising the ionic liquid in the reference electrode membrane; ISO 10993-5:2009 (E) and ISO 10993-12:2021 (E)
Experimental: An evaluation of the acute cytotoxicity of the reference electrode components was performed.
Cytotoxicity-based biocompatibility tests were performed according to the procedures of ISO 10993-5:2009 (E) and ISO 10993-12:2021 (E) standards.

| Molecule | acute cytotoxicity |
| --- | --- |
| CCCCn1cc[n+](C)c1.[Cl-] [1-butyl-3-methylimidazolium chloride] | no significant toxicity |
| choline phosphate | no significant toxicity |
| choline acetate | no significant toxicity |
| 1-ethyl-3-methylimidazolium bis(trifluoromethyl sulfonyl)imide | no significant toxicity; also recorded: lowest cytotoxicity |
| CCCCn1cc[n+](C)c1.F[P-](F)(F)(F)(F)F [1-butyl-3-methylimidazolium hexafluorophosphate] | no significant toxicity |
| CC(=O)[O-].CCCCn1cc[n+](C)c1 [1-butyl-3-methylimidazolium acetate] | no significant toxicity |
